In patent EP4491625A1, “BENZO BICYCLIC COMPOUND, AND PREPARATION METHOD AND APPLICATION THEREOF” (Guangzhou Unirise Pharmaceutical Co., Ltd., priority 2022, dated 2023):
Read-outs that look alike come from different tables or passages of the source.

Legend:
[1] = Human liver microsome stability test; type: in vitro ADME; settings: pH 7.4; human liver microsomes 0.5 mg/mL, 1 µM compound, NADPH, 37 °C
Experimental: Preparation of compound working solutions: A high-concentration stock solution of the subject and control drug verapamil powder was prepared in DMSO and diluted to a working solution of 100 µM with DMSO before use, with a final concentration of 1 µM of the subject and verapamil.
Preparation of phosphate buffer salt (100 mM, pH 7.4): 7.098 g of disodium hydrogen phosphate was weighed and dissolved ultrasonically in 500 mL of purified water as solution A. 3.400 g of potassium dihydrogen phosphate was weighed and dissolved ultrasonically in 250 mL of purified water as solution B. Solution B was added to the inside of solution A to give a pH of 7.4.
Preparation of 10 mM NADPH: An appropriate amount of NADPH is now weighed before the experiment and a working solution of 10 mM concentration is prepared from phosphate solution.
Preparation of the incubation system: The incubation system was prepared according to the following table, and the incubation system was preheated in a water bath at 37 °C for 10 minutes before use.
Transfer 25 µL of NADPH or phosphate buffer salt to the above incubation system and add 2.5 µL of 100 µM subject or verapamil. For NADPH-added samples, double-parallel preparations were performed; for NADPH-negative samples, single-parallel preparations were performed.
30 µL of the suspension was taken at 0.5, 5, 15, 30, and 60 min, respectively. The reaction was terminated by adding 150 µL of acetonitrile containing the internal standard and vortexed for 10 min.
This was followed by centrifugation at 3220 g for 40 min for protein precipitation. 100 µL of supernatant was transferred to the injection plate and mixed with 100 µL of pure water for UPLC-MS/MS analysis.
All data calculations were performed by Microsoft Excel software. Peak areas were detected by extracted ion mapping. The in vitro half-life (t1/2) of the parent drug was assayed by fitting the natural logarithm of the percentage elimination of the parent drug linearly with time.
The in vitro half-life (t1/2) was calculated by slope: t1/2 = 0.693 / k
The in vitro clearance (in µL/min/mg) was calculated using the following formula: CLint =0.693/ t1/2 * (Incubation system volume (μL) / protein content (mg)) [formula]
Table 3 the experimental results of human liver microsome of the compounds provided in some examples of the present invention

GLP-1 receptor = biological target: T1, GLP-1 receptor (Homo sapiens, UniProt P43220); test: cAMP detection assay of agonistic effect in HEK293 cells with high expression of hGLP-1R; type: cell-based
T1 construct: host or cells: HEK293
Experimental: The cells were constructed by Wuxi New Drug Development Co., Ltd. Shanghai.
The compound was prepared with DMSO to a working concentration of 100µM or 10µM. 10 points of 4-fold dilution (maximum concentration of 1000nM or 100nM after dilution) was done with Bravo V11.
The compound to be tested was diluted 4 times with Bravo to obtain 10 concentrations and the initial concentration was 100µM by Bravo V11. The initial concentration was 100µM.

[2] = Pharmacokinetic study in rats (intravenous or gavage, plasma LC-MS/MS); type: in vivo; settings: SD rats; for F: po 5 mg/kg versus iv 1 mg/kg; for AUC(0-t) / Cmax / Tmax / half-life: rat, plasma
Experimental: SD rats: male, 6-8 weeks old, weighing 200-300 g, purchased from SPF ( Beijing ) Biotechnology Co.,Ltd..
At each PK sampling point, 200 µL of whole blood was collected into EDTA-K2 anticoagulant blood tubes and centrifuged at 4°C for 30 min to obtain plasma. Whole blood samples were placed on wet ice before centrifugation. All collected plasma samples were stored on dry ice or frozen until analyzed.
Approximately1 mg of the compound of the present application was weighed and dissolved in DMSO, vortexed and sonicated to obtain a 1 mg/mL standard stock solution. The standard stock solution was diluted with 50% aqueous acetonitrile to obtain standard working solutions with concentrations of 5, 10, 20, 50, 100, 500, 1000, 5000 and 10000 ng/mL. QC working solutions with concentrations of 10, 20, 500 and 8000 ng/mL were prepared using the same dilution method. These QC samples were prepared on the day of analysis in the same way as the standard curve samples.5 µL of standard working solution with concentrations of (5, 10, 20, 50, 100, 500, 1000, 5000 and 10000 ng/mL) was added to 50 µL of blank SD rat plasma to obtain a total volume of 55 µL with concentrations of 0.5-1000 ng/mL (0.5, 1, 2, 5, 10, 50, 100, 500, and 1000 ng/mL) of standard curve samples. QC samples with concentrations of (1 ng/ml (low-1) and 2 ng/ml (low-2), 50 ng/ml (medium), 800 ng/ml (high)) were configured separately.
55 µL of standard samples, 55 µL of QC samples or 55 µL of unknown samples (50 µL of plasma samples added to 5 µL of 50% aqueous acetonitrile) were added to 200 µL of acetonitrile containing an internal standard (dexamethasone) to precipitate proteins. […] The supernatant was taken and diluted 3-fold with water, and 5 µL of the supernatant dilution was injected into the LC-MS/MS system for quantitative analysis under the following assay conditions:
Column: HALO 90A Phenly-Hexyl, 2µm 2.1×30mm.
Pharmacokinetic parameters were calculated by the […] of Phoenix TM Winnonlin® 8.3 software.

T1 sequence (P43220 24-463): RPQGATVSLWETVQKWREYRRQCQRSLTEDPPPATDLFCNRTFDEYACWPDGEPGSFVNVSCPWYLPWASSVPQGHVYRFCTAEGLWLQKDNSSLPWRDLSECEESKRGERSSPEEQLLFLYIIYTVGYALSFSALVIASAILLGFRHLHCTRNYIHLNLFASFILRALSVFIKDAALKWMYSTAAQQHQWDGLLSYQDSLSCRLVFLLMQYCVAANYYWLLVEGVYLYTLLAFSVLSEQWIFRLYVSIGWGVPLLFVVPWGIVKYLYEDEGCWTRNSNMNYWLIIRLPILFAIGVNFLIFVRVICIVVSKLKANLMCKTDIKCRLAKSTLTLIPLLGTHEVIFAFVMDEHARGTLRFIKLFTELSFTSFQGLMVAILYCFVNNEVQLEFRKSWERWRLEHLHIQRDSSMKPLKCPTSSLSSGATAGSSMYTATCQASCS

SMILES	half-life at 1 µM [1]	EC50 (GLP-1 receptor; agonistic effect, cAMP, HEK293 cells with high expression of hGLP-1R, read-out: EC50)	F [2]	AUC(0-t) ([2]; male, iv, 1 mg/kg)	Cmax ([2]; male, iv, 1 mg/kg)	Tmax ([2]; male, iv, 1 mg/kg)	half-life ([2]; male, iv, 1 mg/kg)	AUC(0-t) ([2]; male, po, 5 mg/kg)	Cmax ([2]; male, po, 5 mg/kg)	Tmax ([2]; male, po, 5 mg/kg)	half-life ([2]; male, po, 5 mg/kg)	EC50 (GLP-1 receptor)	AUC(0-t) ([2]; iv, 1 mg/kg)	Cmax ([2]; iv, 1 mg/kg)	Tmax ([2]; iv, 1 mg/kg)	half-life ([2]; iv, 1 mg/kg)	AUC(0-t) ([2]; po, 5 mg/kg)	Cmax ([2]; po, 5 mg/kg)	Tmax ([2]; po, 5 mg/kg)	half-life ([2]; po, 5 mg/kg)
O=C(O)c1ccc2nc(CC3CC=C(c4cccc(OCc5ccc(Cl)c6cc(F)oc56)n4)CC3)n(C[C@@H]3CCO3)c2c1 (stereo partly drawn) [Compound 2, 2-((4-(6-((4-chloro-2-fluorobenzofuran-7-yl)methoxy)pyridin-2-yl)cyclohex-3-en-1-yl)methyl)-1-(((S)-oxetan-2-yl)methyl)-1H-benzo[d]imidazole-6-carboxylic acid]	136 min	0.23 nM	31.8%	1240 ng·h/mL	2300 ng/mL	4.98 min	69 min	1960 ng·h/mL	754 ng/mL	60 min	154 min									
O=C(O)c1ccc2nc(C[C@H]3CC[C@H](c4cccc(OCc5ccc(Cl)c6cc(F)oc56)n4)CC3)n(C[C@@H]3CCO3)c2c1 [Compound 27B, 2-(((1r,4S)-4-(6-((4-chloro-2-fluorobenzofuran-7-yl)methoxy)pyridin-2-yl)cyclohexyl)methyl)-1-(((S)-oxetan-2-yl)methyl)-1H-benzo[d]imidazole-6-carboxylic acid]	102 min		44.4%									0.17 nM	1680 ng·h/mL	2830 ng/mL	4.98 min	42.4 min	3670 ng·h/mL	1160 ng/mL	50 min	251 min
